In patent US9409905B2, “Antibacterial compounds and methods for use” (PTC THERAPEUTICS, INC., priority 2011, dated 2016):
In brackets after ≈: the same amount, converted by molar mass.

What was measured:
E. coli LZ3111 = assay: Antibacterial activity, MIC, quinolone resistant strain (Table 2); format: cell-based; conditions: Escherichia coli, LZ3111, read-out: MIC LZ3111
Method in brief: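 Microbroth dilution method; MIC (μg/mL) is the lowest drug concentration preventing macroscopically visible growth under test conditions.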

E. coli 25922 = assay: Antibacterial activity, microbroth dilution MIC (Table 1); format: cell-based, Escherichia coli; conditions: Escherichia coli; microbroth dilution; control Gram-negative E. coli 25922 strain; read-out: MIC, 25922
Method in brief: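 Read-out: visual absence of growth. The lowest concentration meeting this gives the MIC, expressed in μg/mL, with microbroth dilution as the method.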

[1] = test system: Staphylococcus aureus (S. aureus) 29213; assay: as above; format: cell-based; conditions: microbroth dilution, Gram-positive S. aureus 29213, read-out: MIC, 29213
Method in brief: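 Using broth microdilution, MIC endpoints (μg/mL) mark where visible growth no longer appears; the panel spans sensitive and control Gram-negative strains plus a Gram-positive strain.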

[2] = test system: Escherichia coli (E. coli) BAS849; assay: as above; format: cell-based; conditions: microbroth dilution, super sensitive Gram-negative E. coli BAS849, read-out: MIC, BAS849
Method in brief: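 Broth microdilution against S. aureus 29213, E. coli 25922 and hypersensitive E. coli BAS849. MIC in μg/mL is the lowest drug concentration preventing macroscopically visible growth under test conditions.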

| Compound | MIC (E. coli LZ3111) [µg/mL] | MIC (E. coli 25922) [µg/mL] | MIC [1] [µg/mL] | MIC [2] [µg/mL] |
| --- | --- | --- | --- | --- |
| CCc1cc(C(=O)O)c(=O)[nH]c1-c1ccc2c(c1)cc(CN)n2C [Cpd 150, 6-(2-(aminomethyl)-1-methyl-1H-indol-5-yl)-5-ethyl-2-oxo-1,2-dihydropyridine-3-carboxylic acid] | 12.5 to 150 (≈ 38.4 to 461 µM) | 1 to 3.5 (≈ 3.07 to 10.8 µM) | 12.5 to 150 (≈ 38.4 to 461 µM) | < 1 |
| CCc1c(-c2ccc3c(c2)cc(CN2CCCC2)n3C)[nH]c(=O)c(C(=O)O)c1C(=O)O [Cpd 110, 5-ethyl-6-(1-methyl-2-(pyrrolidin-1-ylmethyl)-1H-indol-5-yl)-2-oxo-1,2-dihydropyridine-3,4-dicarboxylic acid] | 12.5 to 150 (≈ 29.5 to 354 µM) | 12.5 to 150 (≈ 29.5 to 354 µM) | 12.5 to 150 (≈ 29.5 to 354 µM) | 12.5 to 150 (≈ 29.5 to 354 µM) |
| CCc1c(-c2ccc3c(c2)cc(CN2C[C@H]4CCC[C@@H](N(Cc5ccccc5)Cc5ccccc5)[C@H]4C2)n3C)[nH]c(=O)c(C(=O)O)c1O [Cpd 283, 6-(2-(((3aR,4R,7aS)-4-(dibenzylamino)-1H-isoindol-2(3H,3aH,4H,5H,6H,7H,7aH)-yl)methyl)-1-methyl-1H-indol-5-yl)-5-ethyl-4-hydroxy-2-oxo-1,2-dihydropyridine-3-carboxylic acid] | 12.5 to 150 (≈ 19.4 to 233 µM) | 12.5 to 150 (≈ 19.4 to 233 µM) | 12.5 to 150 (≈ 19.4 to 233 µM) | 12.5 to 150 (≈ 19.4 to 233 µM) |
| CCc1c(-c2ccc3c(c2)cc(CN2CCCC2)n3C)[nH]c(=O)c(C(=O)O)c1N [Cpd 329, 4-amino-5-ethyl-6-(1-methyl-2-(pyrrolidin-1-ylmethyl)-1H-indol-5-yl)-2-oxo-1,2-dihydropyridine-3-carboxylic acid] | 12.5 to 150 (≈ 31.7 to 380 µM) | 3.5 to 12.5 (≈ 8.87 to 31.7 µM) | 12.5 to 150 (≈ 31.7 to 380 µM) | < 1 |
| CCc1c(-c2ccc3c(c2)cc(CN2CCC[C@H]2C(=O)OC)n3C)[nH]c(=O)c(C(=O)O)c1O [Cpd 190, (S)-5-ethyl-4-hydroxy-6-(2-((2-(methoxycarbonyl)pyrrolidin-1-yl)methyl)-1-methyl-1H-indol-5-yl)-2-oxo-1,2-dihydropyridine-3-carboxylic acid] | 12.5 to 150 (≈ 27.6 to 331 µM) | 12.5 to 150 (≈ 27.6 to 331 µM) | 3.5 to 12.5 (≈ 7.72 to 27.6 µM) | < 1 |
| CCc1cc(C(=O)O)c(=O)[nH]c1-c1cc(C)c2c(c1)cc(CN(C)C)n2C [Cpd 105, 6-(2-((dimethylamino)methyl)-1,7-dimethyl-1H-indol-5-yl)-5-ethyl-2-oxo-1,2-dihydropyridine-3-carboxylic acid] | 12.5 to 150 (≈ 34 to 408 µM) | 3.5 to 12.5 (≈ 9.53 to 34 µM) | 12.5 to 150 (≈ 34 to 408 µM) | < 1 |
| CCc1c(-c2ccc3c(c2)cc(CNCc2ccccc2F)n3C)[nH]c(=O)c(C(=O)O)c1O [Cpd 299, 5-ethyl-6-(2-((2-fluorobenzylamino)methyl)-1-methyl-1H-indol-5-yl)-4-hydroxy-2-oxo-1,2-dihydropyridine-3-carboxylic acid] | 12.5 to 150 (≈ 27.8 to 334 µM) | 1 to 3.5 (≈ 2.22 to 7.79 µM) | 1 to 3.5 (≈ 2.22 to 7.79 µM) | < 1 |
| CCc1c(-c2ccc3c(c2)cc(CNCc2cccc(C)c2)n3C)[nH]c(=O)c(C(=O)O)c1O [Cpd 294, 5-ethyl-4-hydroxy-6-(1-methyl-2-((3-methylbenzylamino)methyl)-1H-indol-5-yl)-2-oxo-1,2-dihydropyridine-3-carboxylic acid] | 12.5 to 150 (≈ 28.1 to 337 µM) | < 1 | 1 to 3.5 (≈ 2.24 to 7.86 µM) | < 1 |
| CCc1cc(C(=O)O)c(=O)[nH]c1-c1ccc2c(c1)cc(CN[C@@H](C)c1ccccc1)n2C [Cpd 117, (S)-5-ethyl-6-(1-methyl-2-((1-phenylethylamino)methyl)-1H-indol-5-yl)-2-oxo-1,2-dihydropyridine-3-carboxylic acid] | 12.5 to 150 (≈ 29.1 to 349 µM) | < 1 | 12.5 to 150 (≈ 29.1 to 349 µM) | < 1 |
| CCc1cc(C(=O)O)c(=O)[nH]c1-c1ccc2c(c1)cc(CN[C@@H](CC)c1ccccc1)n2C [Cpd 119, (S)-5-ethyl-6-(1-methyl-2-((1-phenylpropylamino)methyl)-1H-indol-5-yl)-2-oxo-1,2-dihydropyridine-3-carboxylic acid] | 12.5 to 150 (≈ 28.2 to 338 µM) | 1 to 3.5 (≈ 2.25 to 7.89 µM) | 3.5 to 12.5 (≈ 7.89 to 28.2 µM) | < 1 |
| CCc1c(-c2ccc3c(c2)c(C#N)c(N(C)C)n3C)[nH]c(=O)c(C(=O)O)c1O [Cpd 361, 6-(3-cyano-2-(dimethylamino)-1-methyl-1H-indol-5-yl)-5-ethyl-4-hydroxy-2-oxo-1,2-dihydropyridine-3-carboxylic acid] | 12.5 to 150 (≈ 32.9 to 394 µM) | 12.5 to 150 (≈ 32.9 to 394 µM) | 3.5 to 12.5 (≈ 9.2 to 32.9 µM) | 1 to 3.5 (≈ 2.63 to 9.2 µM) |
| CCc1cc(C(=O)O)c(=O)[nH]c1-c1ccc2c(c1)cc(CN1CCNCC1)n2C [Cpd 139, 5-ethyl-6-(1-methyl-2-(piperazin-1-ylmethyl)-1H-indol-5-yl)-2-oxo-1,2-dihydropyridine-3-carboxylic acid] | 12.5 to 150 (≈ 31.7 to 380 µM) | 12.5 to 150 (≈ 31.7 to 380 µM) | 12.5 to 150 (≈ 31.7 to 380 µM) | 1 to 3.5 (≈ 2.54 to 8.87 µM) |
| CC(C)c1c(-c2ccc3c(c2)cc(CNCC2CC2)n3C)[nH]c(=O)c(C(=O)O)c1O [Cpd 321, 6-(2-((cyclopropylmethylamino)methyl)-1-methyl-1H-indol-5-yl)-4-hydroxy-5-isopropyl-2-oxo-1,2-dihydropyridine-3-carboxylic acid] | 12.5 to 150 (≈ 30.5 to 366 µM) | 1 to 3.5 (≈ 2.44 to 8.55 µM) | 3.5 to 12.5 (≈ 8.55 to 30.5 µM) | < 1 |
